Laboratory results taken from patent US11639350B2, “Heteroaryldihydropyrimidine derivatives and methods of treating hepatitis B infections” (Janssen Pharmaceutica NV, priority 2018, dated 2023).

What was measured:
HBV = HBV inhibitory activity: HBV DNA in the culture medium of HepG2.2.15 cells by q-PCR; type: cell-based; conditions: Hepatitis B virus, HepG2.2.15, 144 h, HepG2.2.15 cells, 6 days of compound treatment, HBV DNA in culture medium by q-PCR, highest concentration 10 μM; read-out: EC50
In short: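 HepG2.2.15 cells in 2% FBS medium, 40,000 per well, treated 6 days with compound (medium refreshed once), eight 3-fold dilutions from 10 μM top. HBV DNA extracted from culture medium and quantified by q-PCR; EC50 averaged over repeats. Cytotoxicity run in parallel at 5,000 cells per well, top 100 μM, giving CC50.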

[1] = Cytotoxicity determination in HepG2.2.15 cells (CCK-8); type: cell-based; conditions: human, 6 days of compound treatment, CCK-8, highest concentration 100 μM
In short: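 HepG2.2.15 cells seeded at 5,000 cells/well in 2% FBS medium, incubated overnight at 37° C., then treated 6 days with compounds (8 points, 3-fold dilutions, top 100 μM), medium refreshed once midway. CCK-8 added for 2.5 h; A450 read against 630 nm reference; CC50 calculated, averaged over repeats.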

Row | Compound | EC50 (HBV) [nM] | CC50 at 6 days [1] [nM]
1 | COC(=O)C1=C(C2C3CCC2CN(S(C)(=O)=O)C3)NC(c2nccs2)=NC1c1cccc(F)c1Cl (single isomer, unassigned) [Compound 37B, Methyl 4-(2-chloro-3-fluorophenyl)-6-(3-(methylsulfonyl)-3-azabicyclo[3.2.1]octan-8-yl)-2-(thiazol-2-yl)-1,4-dihydropyrimidine-5-carboxylate] | 129 | 5900
2 | COC(=O)C1=C(C2CC3CCC(C2)N3S(C)(=O)=O)NC(c2nccs2)=NC1c1ccc(F)cc1Cl (single isomer, unassigned) [Compound 38B, 4-(2-Chloro-4-fluoro-phenyl)-6-(8-methanesulfonyl-8-aza-bicyclo[3.2.1]oct-3-yl)-2-thiazol-2-yl-1,4-dihydro-pyrimidine-5-carboxylic Acid Methyl Ester] | 239 | 34100
3 | COC(=O)C1=C(C2CC3CCC(C2)N3S(C)(=O)=O)NC(c2nccs2)=NC1c1cccc(F)c1Cl (single isomer, unassigned) [Compound 39B, 4-(2-Chloro-3-fluoro-phenyl)-6-(8-methanesulfonyl-8-aza-bicyclo[3.2.1]oct-3-yl)-2-thiazol-2-yl-1,4-dihydro-pyrimidine-5-carboxylic Acid Methyl Ester] | 101 | 30600
4 | CCOC(=O)C1=C(C2[C@H]3CN(S(C)(=O)=O)C[C@@H]23)NC(c2nccs2)=NC1c1ccc(F)cc1Cl (single isomer, unassigned) [Compound 41A] | 514 | 11600
5 | CCOC(=O)C1=C(C2CCCCC2)NC(c2nccs2)=NC1c1ccc(F)cc1Cl (single isomer, unassigned) [Compound 47A, Ethyl 4-(2-chloro-4-fluorophenyl)-6-cyclohexyl-2-(thiazol-2-yl)-1,4-dihydro-pyrimidine-5-carboxylate] | 276 | 30900
6 | COC(=O)C1=C(C2CCCCO2)NC(c2nccs2)=NC1c1ccc(F)cc1Cl (single isomer, unassigned) [Compound 49C, Methyl 4-(2-chloro-4-fluorophenyl)-6-(tetrahydro-2H-pyran-2-yl)-2-(thiazol-2-yl)-1,4-dihydropyrimidine-5-carboxylate] | 202 | 84600
7 | COC(=O)C1=C(C2CCOCC2)NC(c2nccs2)=NC1c1cccc(F)c1Cl (single isomer, unassigned) [Compound 50B, 4-(2-Chloro-3-fluoro-phenyl)-6-(tetrahydro-pyran-4-yl)-2-thiazol-2-yl-1,4-dihydro-pyrimidine-5-carboxylic acid methyl ester] | 270 | 35600
8 | COC(=O)C1=C(C2CCOCC2)NC(c2nccs2)=NC1c1ccc(F)cc1Cl (single isomer, unassigned) [Compound 51B, Methyl 4-(2-chloro-4-fluorophenyl)-6-(tetrahydro-2H-pyran-4-yl)-2-(thiazol-2-yl)-1,4-dihydropyrimidine-5-carboxylate] | 467 | > 100000
9 | COC(=O)C1=C(C2CCN(S(C)(=O)=O)CC2)NC(c2c(F)cc(F)cc2F)=NC1c1ccc(F)cc1Cl (single isomer, unassigned) [Compound 54A, Methyl 4-(2-chloro-4-fluorophenyl)-6-(1-(methylsulfonyl)piperidin-4-yl)-2-(2,4,6-trifluorophenyl)-1,4-dihydropyrimidine-5-carboxylate] | 19 | 31200
10 | CCOC(=O)C1=C(C2CCN(S(C)(=O)=O)CC2)NC(c2ncc(F)cc2F)=NC1c1ccc(F)cc1Cl (single isomer, unassigned) [Compound 56A, Ethyl 4-(2-chloro-4-fluorophenyl)-2-(3,5-difluoropyridin-2-yl)-6-(1-(methylsulfonyl)piperidin-4-yl)-1,4-dihydropyrimidine-5-carboxylate] | 513 | > 10000
